This is an account of results in patent US7166614B2, “Tetrahydropyranyl cyclopentyl tetrahydroisoquinoline modulators of chemokine receptor activity” (Merck & Co., Inc., priority 2002, dated 2007).

In one data set the target is T1, CCR-2 receptor (Homo sapiens, UniProt P41597).
T1 construct: the endogenous CCR-2 receptor on various cell types including monocytes, THP-1 cells; endogenous in cells; host or cells: monocytes, THP-1 cells (or eukaryotic cells expressing the cloned receptor)
The data set is described as follows: CCR-2 binding assay (inhibition of 125I-MCP-1 binding). The settings on record: cis isomer compared with trans isomer, resolved on preparation plate; assay not specified. As for the experimental part:
Receptor affinity in a CCR-2 binding assay was determined by measuring inhibition of ^125I-MCP-1 to the endogenous CCR-2 receptor on various cell types including monocytes, THP-1 cells, or after heterologous expression of the cloned receptor in eukaryotic cells. The cells were suspended in binding buffer (50 mM HEPES, pH 7.2,5 mM MgCl2, 1 mM CaCl2, and 0.50% BSA) with and added to test compound or DMSO and ^125I-MCP-1 at room temperature for 1 h to allow binding. The cells were then collected on GFB filters, washed with 25 mM HEPES buffer containing 500 mM NaCl and cell bound ^125I-MCP-1 was quantified.

Data set [1] can be described thus: Storage stability at room temperature (air oxidation, LC-MS). Type of data set: physicochemical. The settings on record: stored in a scintillation vial at room temperature for three months; degradation by air oxidation; separation by reverse phase HPLC. As for the experimental part:
Separation by Gilson reverse phase HPLC provided two new products (Example 114 and 115) and 60% of the parent compound recovered. These compounds were analyzed by NMR and LC-MS to determine the structures.

T1 sequence (P41597 whole entry): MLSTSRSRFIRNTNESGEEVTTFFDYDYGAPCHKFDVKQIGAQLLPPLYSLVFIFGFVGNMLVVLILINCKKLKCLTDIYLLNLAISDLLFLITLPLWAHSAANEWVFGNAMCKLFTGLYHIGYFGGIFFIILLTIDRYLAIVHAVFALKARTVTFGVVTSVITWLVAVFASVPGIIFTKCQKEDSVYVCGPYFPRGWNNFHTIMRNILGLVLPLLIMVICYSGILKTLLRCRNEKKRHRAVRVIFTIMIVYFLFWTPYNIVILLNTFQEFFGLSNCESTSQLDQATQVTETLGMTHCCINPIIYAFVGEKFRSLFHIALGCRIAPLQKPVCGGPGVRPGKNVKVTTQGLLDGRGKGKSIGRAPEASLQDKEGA

Turning to `CSC1(C(=O)N2CCc3ccc(C(F)(F)F)cc3C2)CC[C@@H](NC2CCOCC2)C1` (some centres unmarked) [Example 3], on CCR-2 receptor, the “relative activity of cis vs trans isomer” value is “more active”.

Consider `CC(C)[C@]1(C(=O)N2CCc3ccc(C(F)(F)F)cc3C2)CC[C@@H](NC2CCOCC2F)C1` (some centres unmarked) [Example 96], for which the “parent compound recovered after storage” value in data set [1] is 60%.
